Results published in the NIST ThermoML archive (doi:10.1016/j.fluid.2010.07.005).
Numbers after ± are expanded uncertainties.

Legend:
[1] = excess molar enthalpy (molar enthalpy of mixing); xn = mol fraction of the nth substance listed; conditions: 298.15 K; 101.33 kPa; Liquid; Flow calorimetry; x2 = 0
[2] = molar heat capacity at constant pressure; conditions: 101.33 kPa, Liquid, Vacuum adiabatic calorimetry
[3] = 101.33 kPa, Liquid; for viscosity: Capillary tube (Ostwald / Ubbelohde) method; for mass density: Speicific gravity balance

## CO [methanol] + COP(=O)([O-])OC.Cn1cc[n+](C)c1
[1]
  excess molar enthalpy: 0 ± 0.00526 kcal/mol

## CCO [ethanol] + COP(=O)([O-])OC.Cn1cc[n+](C)c1
[1]
  excess molar enthalpy: 0 ± 0.0086 kcal/mol

## COP(=O)([O-])OC.Cn1cc[n+](C)c1 [1,3-dimethylimidazolium dimethylphosphate]
[2]; 298.15 K
  molar heat capacity at constant pressure: 282.83 ± 13 J/K/mol
[2]; 303.15 K
  molar heat capacity at constant pressure: 296.61 ± 13 J/K/mol
[2]; 313.15 K
  molar heat capacity at constant pressure: 310.83 ± 13 J/K/mol
[2]; 323.15 K
  molar heat capacity at constant pressure: 321.05 ± 13 J/K/mol
[3]; 298.15 K
  viscosity: 271.86 ± 8 mPa·s
  mass density: 1258.7 ± 1.2 kg/m3
[3]; 303.15 K
  viscosity: 188.3 ± 4.5 mPa·s
  mass density: 1255.9 ± 1.2 kg/m3
[3]; 308.15 K
  viscosity: 139.49 ± 2.6 mPa·s
  mass density: 1253 ± 1.2 kg/m3
[3]; 313.15 K
  viscosity: 110.25 ± 1.6 mPa·s
  mass density: 1249.1 ± 1.2 kg/m3
[3]; 318.15 K
  viscosity: 84.44 ± 0.88 mPa·s
  mass density: 1245.2 ± 1.2 kg/m3
[3]; 323.15 K
  viscosity: 69.99 ± 0.59 mPa·s
  mass density: 1241.5 ± 1.2 kg/m3

## O [water] + COP(=O)([O-])OC.Cn1cc[n+](C)c1
[1]
  excess molar enthalpy: 0 ± 0.055 kcal/mol
